Assay results: US12297190B2, “Modulators of STING (stimulator of interferon genes)” (PFIZER INC., priority 2019, dated 2025)

biological target: R232-STING (Homo sapiens, UniProt Q86WV6, H232R); assay: biochemical
Sequence (Q86WV6 155-341 H232R): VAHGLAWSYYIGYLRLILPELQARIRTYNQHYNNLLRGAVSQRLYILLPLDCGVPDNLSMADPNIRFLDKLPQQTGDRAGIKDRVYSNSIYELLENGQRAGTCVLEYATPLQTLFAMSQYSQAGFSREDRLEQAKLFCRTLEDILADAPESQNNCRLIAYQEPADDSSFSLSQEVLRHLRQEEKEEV

| Compound | Ki [nM] |
| --- | --- |
| CCn1nc(CO)cc1-c1nc(-c2nc(C(N)=O)cc3[nH]ncc23)n(C)n1 [ZZZ082, 4-{3-[1-ethyl-3-(hydroxymethyl)-1H-pyrazol-5-yl]-1-methyl-1H-1,2,4-triazol-5-yl}-1H-pyrazolo[4,3-c]pyridine-6-carboxamide] | 501 |
| CCn1nc(C(=O)O)cc1-c1nc(-c2nc(C(N)=O)cc3c2cnn3C)n(C)n1 [ZZZ083, 5-[5-(6-carbamoyl-1-methyl-1H-pyrazolo[4,3-c]pyridin-4-yl)-1-methyl-1H-1,2,4-triazol-3-yl]-1-ethyl-1H-pyrazole-3-carboxylic acid] | > 270 |
| CCn1nc(C)c(O)c1-c1nc(-c2nc(C(N)=O)cc3[nH]ncc23)n(C)n1 [ZZZ084, 4-[3-(1-ethyl-4-hydroxy-3-methyl-1H-pyrazol-5-yl)-1-methyl-1H-1,2,4-triazol-5-yl]-1H-pyrazolo[4,3-c] pyridine-6-carboxamide] | > 90.1 |
| Cn1ncc2c(-c3nc(-c4cc(C(F)(F)F)nn4CCC(=O)O)n[nH]3)cc(C(N)=O)cc21 [ZZZ085, 3-{5-[5-(6-carbamoyl-1-methyl-1H-indazol-4-yl)-1H-1,2,4-triazol-3-yl]-3-(trifluoromethyl)-1H-pyrazol-1-yl}propanoic acid] | 44.2 |
| CCn1nc(C)c(F)c1-c1nnc(-c2cc(C(N)=O)cn3c(CN)ncc23)[nH]1 [ZZZ086, 3-(aminomethyl)-8-[5-(1-ethyl-4-fluoro-3-methyl-1H-pyrazol-5-yl)-4H-1,2,4-triazol-3-yl]imidazo[1,5-c]pyridine-6-carboxamide] | > 990 |
| CCn1nc(C)c(F)c1-c1nc(-c2nc(C(N)=O)cc3c2cnn3CCN2C[C@@H](C)O[C@@H](C)C2)n(C)n1 [ZZZ087, 1-{2-[(2R,6S)-2,6-dimethylmorpholin-4-yl]ethyl}-4-[3-(1-ethyl-4-fluoro-3-methyl-1H-pyrazol-5-yl)-1-methyl-1H-1,2,4-triazol-5-yl]-1H-pyrazolo[4,3-c]pyridine-6-carboxamide] | > 990 |
| CCn1nc(C)cc1-c1n[nH]c(-c2cc(C(N)=O)cc3c2cnn3CCN2CCO[C@@H](C)[C@H]2C)n1 [ZZZ088, 1-{2-[(2S,3R)-2,3-dimethylmorpholin-4-yl]ethyl}-4-[3-(1-ethyl-3-methyl-1H-pyrazol-5-yl)-1H-1,2,4-triazol-5-yl]-1H-indazole-6-carboxamide] | > 990 |
| CCn1nc(C)cc1-c1n[nH]c(-c2cc(C(N)=O)cc3c2cnn3CCN2C3COCC2C3)n1 [ZZZ090, 4-[3-(1-ethyl-3-methyl-1H-pyrazol-5-yl)-1H-1,2,4-triazol-5-yl]-1-[2-(3-oxa-6-azabicyclo[3.1.1]heptan-6-yl)ethyl]-1H-indazole-6-carboxamide] | > 990 |
| CCn1nc(C)cc1-c1n[nH]c(-c2cc(C(N)=O)cc3c2cnn3CCN2C[C@H](O)[C@H]2C)n1 [ZZZ091, 4-[3-(1-ethyl-3-methyl-1H-pyrazol-5-yl)-1H-1,2,4-triazol-5-yl]-1-{2-[(2R,3S)-3-hydroxy-2-methylazetidin-1-yl]ethyl}-1H-indazole-6-carboxamide] | 831 |
| CCn1nc(C)cc1-c1n[nH]c(-c2cc(C(N)=O)cc3c2cnn3CCN2CCC23CC3)n1 [ZZZ093, 1-[2-(4-azaspiro[2.3]hexan-4-yl)ethyl]-4-[3-(1-ethyl-3-methyl-1H-pyrazol-5-yl)-1H-1,2,4-triazol-5-yl]-1H-indazole-6-carboxamide] | > 990 |
| CCn1nc(C)cc1-c1n[nH]c(-c2cc(C(N)=O)cc3c2cnn3CCN2CC3(CCCO3)C2)n1 [ZZZ094, 4-[3-(1-ethyl-3-methyl-1H-pyrazol-5-yl)-1H-1,2,4-triazol-5-yl]-1-[2-(5-oxa-2-azaspiro[3.4]octan-2-yl)ethyl]-1H-indazole-6-carboxamide] | 550 |
| CCn1nc(C)cc1-c1n[nH]c(-c2cc(C(N)=O)cc3c2cnn3CCN2CCC3CC3C2)n1 (stereo not shown) [ZZZ095, 1-[2-(3-azabicyclo[4.1.0]heptan-3-yl)ethyl]-4-[3-(1-ethyl-3-methyl-1H-pyrazol-5-yl)-1H-1,2,4-triazol-5-yl]-1H-indazole-6-carboxamide] | 773 |
| CCn1nc(C)cc1-c1n[nH]c(-c2cc(C(N)=O)cc3c2cnn3CCN2CC(CO)OCC2C)n1 (stereo not shown) [ZZZ096, 4-[3-(1-ethyl-3-methyl-1H-pyrazol-5-yl)-1H-1,2,4-triazol-5-yl]-1-{2-[2-(hydroxymethyl)-5-methylmorpholin-4-yl]ethyl}-1H-indazole-6-carboxamide] | 861 |
| CCn1nc(C)cc1-c1n[nH]c(-c2cc(C(N)=O)cc3c2cnn3CCN2C[C@@H](C)OC[C@H]2C)n1 [ZZZ097, 1-{2-[(2R,5R)-2,5-dimethylmorpholin-4-yl]ethyl}-4-[3-(1-ethyl-3-methyl-1H-pyrazol-5-yl)-1H-1,2,4-triazol-5-yl]-1H-indazole-6-carboxamide] | 661 |
| CCn1nc(C)cc1-c1n[nH]c(-c2cc(C(N)=O)cc3c2cnn3CCN2CCO[C@H](C)C2)n1 [ZZZ098, 4-[3-(1-ethyl-3-methyl-1H-pyrazol-5-yl)-1H-1,2,4-triazol-5-yl]-1-{2-[(2R)-2-methylmorpholin-4-yl]ethyl}-1H-indazole-6-carboxamide] | 541 |
| CCn1nc(C)cc1-c1n[nH]c(-c2cc(C(N)=O)cc3c2cnn3CCN2CC(O)C2)n1 [ZZZ100, 4-[3-(1-ethyl-3-methyl-1H-pyrazol-5-yl)-1H-1,2,4-triazol-5-yl]-1-[2-(3-hydroxyazetidin-1-yl)ethyl]-1H-indazole-6-carboxamide] | 842 |

| Compound | Ki [nM] |
| --- | --- |
| CCn1nc(C)cc1-c1n[nH]c(-c2cc(C(N)=O)cc3c2cnn3CCN(C)CC#N)n1 [ZZZ101, 1-{2-[(cyanomethyl)(methyl)amino]ethyl}-4-[3-(1-ethyl-3-methyl-1H-pyrazol-5-yl)-1H-1,2,4-triazol-5-yl]-1H-indazole-6-carboxamide] | 509 |
| CCn1nc(C)cc1-c1n[nH]c(-c2cc(C(N)=O)cc3c2cnn3CCN2CCOCC2(C)C)n1 [ZZZ102, 1-[2-(3,3-dimethylmorpholin-4-yl)ethyl]-4-[3-(1-ethyl-3-methyl-1H-pyrazol-5-yl)-1H-1,2,4-triazol-5-yl]-1H-indazole-6-carboxamide] | 900 |
| CCn1nc(C)cc1-c1n[nH]c(-c2cc(C(N)=O)cc3c2cnn3CCN2CC(C)(O)C2)n1 [ZZZ103, 4-[3-(1-ethyl-3-methyl-1H-pyrazol-5-yl)-1H-1,2,4-triazol-5-yl]-1-[2-(3-hydroxy-3-methylazetidin-1-yl)ethyl]-1H-indazole-6-carboxamide] | > 990 |
| CCN(CCC#N)CCn1ncc2c(-c3nc(-c4cc(C)nn4CC)n[nH]3)cc(C(N)=O)cc21 [ZZZ104, 1-{2-[(2-cyanoethyl)(ethyl)amino]ethyl}-4-[3-(1-ethyl-3-methyl-1H-pyrazol-5-yl)-1H-1,2,4-triazol-5-yl]-1H-indazole-6-carboxamide] | 806 |
| CCn1nc(C)cc1-c1n[nH]c(-c2cc(C(N)=O)cc3c2cnn3CCN(C)CC(N)=O)n1 [ZZZ105, 1-{2-[(2-amino-2-oxoethyl)(methyl)amino]ethyl}-4-[3-(1-ethyl-3-methyl-1H-pyrazol-5-yl)-1H-1,2,4-triazol-5-yl]-1H-indazole-6-carboxamide] | 879 |
| CCn1nc(C)cc1-c1n[nH]c(-c2cc(C(N)=O)cc3c2cnn3CCN2CC[C@H](OC)C2)n1 [ZZZ106, 4-[3-(1-ethyl-3-methyl-1H-pyrazol-5-yl)-1H-1,2,4-triazol-5-yl]-1-{2-[(3S)-3-methoxypyrrolidin-1-yl]ethyl}-1H-indazole-6-carboxamide] | 944 |
| CCn1nc(C)cc1-c1n[nH]c(-c2cc(C(N)=O)cc3c2cnn3CCN2CC[C@@H](O)C2)n1 [ZZZ107, 4-[3-(1-ethyl-3-methyl-1H-pyrazol-5-yl)-1H-1,2,4-triazol-5-yl]-1-{2-[(3R)-3-hydroxypyrrolidin-1-yl]ethyl}-1H-indazole-6-carboxamide] | > 990 |
| CCn1nc(C)cc1-c1n[nH]c(-c2cc(C(N)=O)cc3c2cnn3CCN(C)C2CCC2)n1 [ZZZ108, 1-{2-[cyclobutyl(methyl)amino]ethyl}-4-[3-(1-ethyl-3-methyl-1H-pyrazol-5-yl)-1H-1,2,4-triazol-5-yl]-1H-indazole-6-carboxamide] | 850 |
| CCn1nc(C)cc1-c1n[nH]c(-c2cc(C(N)=O)cc3c2cnn3CCN(C)CCO)n1 [ZZZ109, 4-[3-(1-ethyl-3-methyl-1H-pyrazol-5-yl)-1H-1,2,4-triazol-5-yl]-1-{2-[(2-hydroxyethyl)(methyl)amino]ethyl}-1H-indazole-6-carboxamide] | 954 |
| CCn1nc(C)cc1-c1n[nH]c(-c2cc(C(N)=O)cc3c2cnn3CCN2CC3CCC3C2)n1 (stereo not shown) [ZZZ110, 1-[2-(3-azabicyclo[3.2.0]heptan-3-yl)ethyl]-4-[3-(1-ethyl-3-methyl-1H-pyrazol-5-yl)-1H-1,2,4-triazol-5-yl]-1H-indazole-6-carboxamide] | 623 |
| CCn1nc(C)cc1-c1n[nH]c(-c2cc(C(N)=O)cc3c2cnn3CCN2CC[C@@H](OC)C2)n1 [ZZZ111, 4-[3-(1-ethyl-3-methyl-1H-pyrazol-5-yl)-1H-1,2,4-triazol-5-yl]-1-{2-[(3R)-3-methoxypyrrolidin-1-yl]ethyl}-1H-indazole-6-carboxamide] | 842 |
| CCN(CCO)CCn1ncc2c(-c3nc(-c4cc(C)nn4CC)n[nH]3)cc(C(N)=O)cc21 [ZZZ112, 1-{2-[ethyl(2-hydroxyethyl)amino]ethyl}-4-[3-(1-ethyl-3-methyl-1H-pyrazol-5-yl)-1H-1,2,4-triazol-5-yl]-1H-indazole-6-carboxamide] | > 990 |
| CCn1nc(C)cc1-c1n[nH]c(-c2cc(C(N)=O)cc3c2cnn3CCN2C[C@@H]3C[C@H]2CO3)n1 [ZZZ113, 4-[3-(1-ethyl-3-methyl-1H-pyrazol-5-yl)-1H-1,2,4-triazol-5-yl]-1-{2-[(1S,4S)-2-oxa-5-azabicyclo[2.2.1]heptan-5-yl]ethyl}-1H-indazole-6-carboxamide] | 731 |
| CCn1nc(C)cc1-c1n[nH]c(-c2cc(C(N)=O)cc3c2cnn3CCN2CCO[C@@H](CO)C2)n1 [ZZZ115, 4-[3-(1-ethyl-3-methyl-1H-pyrazol-5-yl)-1H-1,2,4-triazol-5-yl]-1-{2-[(2R)-2-(hydroxymethyl)morpholin-4-yl]ethyl}-1H-indazole-6-carboxamide] | 846 |
| CCn1nc(C)cc1-c1n[nH]c(-c2cc(C(N)=O)cc3c2cnn3CCN2CCOC[C@@H]2CO)n1 [ZZZ116, 4-[3-(1-ethyl-3-methyl-1H-pyrazol-5-yl)-1H-1,2,4-triazol-5-yl]-1-{2-[(3S)-3-(hydroxymethyl)morpholin-4-yl]ethyl}-1H-indazole-6-carboxamide] | > 990 |
